In PMC13101830 (Pharmaceutical research, 2023):
Where a SMILES comes first, the peptide text is derived from it.

Tested on: BBB-mimicking system with the co-culture of bEnd.3 and astrocytes
Experiment: In vitro BBB permeability assay in BBB-mimicking co-culture model
Format: in vitro ADME, mouse
Conditions: 10 μg/ml in top chamber, 30-120 min, 37°C

Compound: N[C@@H](Cc1cnc[nH]1)C(=O)N[C@@H](Cc1ccc(O)cc1)C(=O)O [His-Tyr] (H-His-Tyr-OH)
- permeability coefficient (Pe), apical to basolateral (A > B): 0.12 ± 0.02 × 10^−5 cm^2/second
